Experimental data from patent publication US20060258735A1, “1,3-Bis-(substituted-phenyl)-2-propen-1-ones and their use to treat VCAM-1 mediated disorders” (priority 2000, published 2006).
pIC50: −log10 of the molar value. Where a name gives a salt, the structure may show the parent alone. Read-outs that look alike come from different tables or passages of the source.

Experiments:
VCAM-1 = assay: In vitro VCAM-1 assay (TNF stimulated vascular endothelial cells); assay type: cell-based; conditions: Endothelial cell
Description: The ability of a compound described herein to inhibit the expression of VCAM-1 in a host can be assessed using any known method, including that described in detail below.
Two to four confluent P150 plates were trypsinized and the cells transferred to a 50 mL conical centrifuge tube. The cells were pelleted, resuspended and counted using the trypan blue exclusion method.
Cells were resuspended at a concentration of 36,000 cells/mL and 1 mL was aliquoted per well.
Cells were split into 24 well tissue culture plates. The cells in each well should be approximately 90-95% confluent by the following day. Cells should not be older than passage 8.
Compounds were initially screened at 50 μM and 10 μM. A 50 mM stock solution for each compound was prepared in culture medium. The stock solution was diluted to 5 mM and 1 mM. When 10 μL of the 5 mM solution was added to the well (1 mL medium/well), the final concentration was 50 μM. Adding 10 μL of the 1 mM solution to the well provides a final concentration of 10 μM.
Compounds which will not go into solution in culture medium were resuspended in DMSO at a concentration of 25 mM. The stock solution was then diluted to the final concentration in culture medium. The old medium was aspirated and 1 mL of the new medium with the compound was added. For example, if the final concentration was 50 μM, the 2 μL of the 25 mM stock was added per mL of culture medium. […] was diluted for lower concentrations.
The compounds were added to the plate (each compound is done in duplicate). One plate was prepared for VCAM expression and one plate was prepared for ICAM expression.
Immediately after the compounds weree added, TNF was added to each well 100 units/mL TNF was usually added to each well. Since each lot of TNF varies in the number of units, each new lot was titrated to determine the optimum concentration. Therefore this concentration changed. If 100 units/mL was being used, TNF was dilted to 10 units/μL and 10 μL added to each well.
The plates were incubated at 37° C., 5% CO2 overnight (approximately 16 hours). The next day the plates were checked under the microscope to see if there were any visual signs of toxicity. Records were made of any cell death, debris, or morphology changes, as well as insoluble compounds (particulate or turbity).
The degree of inhibition of the compounds of formula (I) was determined by the assays.

MCP-1 = assay: In vitro MCP-1 activity assay (TNF-α stimulated endothelial cells, MCP-1 immunoassay); assay type: cell-based; conditions: Endothelial cell; human endothelial cells stimulated with TNF-α (1 ng/ml), approximately 16 hours, MCP-1 immunoassay of culture media
Description: Cultured human endothelial cells were seeded in 96-well plates. On the following day cells were stimulated with TNF-α (1 ng/ml) in the presence or absence of compounds dissolved in DMSO. To establish a dose curve and IC50 for each compound, multiple concentrations in 2-fold increments were used. Cells were exposed to TNF-α and compounds for approximately 16 hours. The next day the cells were visually examined via light microscopy to score for visual signs of toxicity. Cell culture media, diluted 1:10, was analyzed by an MCP-1 immunoassay kit (R & D Systems). This assay is a sandwich immunoassay using immobilized anti-MCP-1 antibody in 96-well plate to capture secreted MCP-1 in cell culture media. Captured MCP-1 is subsequently detected with a horse radish peroxidase-conjugated anti-MCP-1 antibody for color development. Results are expressed as IC50 values (the amount of compound (µM) required to achieve a 50% reduction compared to control (cells stimulated with TNF-α only)).

[1] = test system: human aortic smooth muscle cells; assay: In vitro smooth muscle cell activity assay (3H-thymidine incorporation, serum stimulated); assay type: cell-based; conditions: human aortic smooth muscle cells stimulated with 5% serum
Description: Cultured human aortic smooth muscle cells were seeded in 24-well plates. When cells reached 80% confluency, they were made quiescent by changing media to 0.2% serum (as compared to 5% serum in normal culture media) for 48 hours. The cells were then stimulated by addition of 5% serum in the presence or absence of compounds dissolved in DMSO. To establish a dose curve and IC50 for each compound, multiple concentrations in 5-fold increments were used. After 20 hr incubation, 3H-thymidine (0.5 μCi/per well) was added to the cells for 4 hours of labeling. Washed cells were then lysed in NaOH and, the amount of 3H-thymidine incorporation was determined. Results are expressed as IC50 values (the amount of compound (µM) required to achieve a 50% reduction compared to control (cells stimulated with 5% serum only)).

[2] = TNF stimulated cells, overnight (approximately 16 hours), read-out: VCAM-1 IC50
[3] = degree of inhibition of VCAM-1 expression, TNF stimulated endothelial cells, approximately 16 hours, read-out: VCAM-1 (µM)

Row | melting point | pIC50 [1] | Compound | further results
1 | > 260 °C |  | COc1ccc(-c2cccs2)cc1C=CC(=O)c1ccc(Cl)c(Cl)c1O.[Na] | 
2 | 255 to 257 °C |  | COc1cc(OCC(=O)O)c(C=CC(=O)c2cc(OC)c(OC)c(OC)c2)cc1-c1cc2ccccc2s1 (as salt: sodium) [3-[5-(benzo[b]thien-2-yl)-2-carboxymethoxy-4-methoxyphenyl]-1-(3,4,5-trimethoxyphenyl)-2-propen-1-one] | 
3 |  |  | COc1cc(C=CC(=O)c2cc(OC)c(OC)c(OC)c2)cc(Br)c1OC [3-(3-bromo-4,5-dimethoxyphenyl)-1-(3,4,5-trimethoxyphenyl)-2-propen-1-one] | pIC50 (VCAM-1; [2]): 5.40
4 |  |  | COc1cc(OCC(=O)O)c(C=CC(=O)c2cc(OC)c(OC)c(OC)c2)cc1-c1cc2ccccc2s1 [3-[5-(benzo[b]thien-2-yl)-2-carboxymethoxy-4-methoxyphenyl]-1-(3,4,5-trimethoxyphenyl)-2-propen-1-one] | pIC50 (VCAM-1; [2]): 5.08
5 | 94 to 97 °C | 6.40 | COc1cc(C=CC(=O)c2ccc(OC)c(OC)c2OC)cc(-c2cccs2)c1OC [Example 2, 3-[3,4-dimethoxy-5-(thien-2-yl)phenyl]-1-(2,3,4-trimethoxyphenyl)-2-propen-1-one] | pIC50 (MCP-1): 5.30
6 | 150 to 151 °C |  | COc1cc(C(=O)C=Cc2cc(OC)c(OC)c(-c3cc4ccccc4s3)c2)cc(OC)c1OC [Example 4, 3-[5-(benzo[b]thien-2-yl)-3,4-dimethoxyphenyl]-1-(3,4,5-trimethoxyphenyl)-2-propen-1-one] | 
7 | 75 to 80 °C | 6.35 | COc1cc(OC)c(-c2cccs2)cc1C=CC(=O)c1cc(OC)c(OC)c(OC)c1 [Example 5, 3-[2,4-dimethoxy-5-(thien-2-yl)phenyl]-1-(3,4,5-trimethoxyphenyl)-2-propen-1-one] | 
8 |  | 6.48 | COc1cc(OC)c(-c2cc3ccccc3s2)cc1/C=C/C(=O)c1cc(OC)c(OC)c(OC)c1 [Example 6, 3-[5-(benzo[b]thien-2-yl)-2,4-dimethoxyphenyl]-1-(3,4,5-trimethoxyphenyl)-2-propen-1-one] | pIC50 (MCP-1): < 4.30
9 |  | 5.82 | COc1ccc(-c2cccs2)cc1C=CC(=O)c1cc(OC)c(OC)c(OC)c1 [Example 7, 3-[2-methoxy-5-(thien-2-yl)phenyl]-1-(3,4,5-trimethoxyphenyl)-2-propen-1-one] | pIC50 (MCP-1): 5.10
10 |  | 5.94 | COc1ccc(-c2cccs2)cc1C=CC(=O)c1ccc(OC)c(OC)c1 [Example 9, 3-[2-methoxy-5-(thien-2-yl)phenyl]-1-(3,4-dimethoxyphenyl)-2-propen-1-one] | pIC50 (MCP-1): 5.00
11 |  | 5.34 | COc1ccc(C(=O)C=Cc2cc(-c3cccs3)ccc2OC)cc1 [Example 11, 3-[2-methoxy-5-(thien-2-yl)phenyl]-1-(4-methoxyphenyl)-2-propen-1-one] | pIC50 (MCP-1): 5.00
12 | 54 to 73 °C |  | COc1ccc(-c2cccs2)cc1C=CC(=O)c1cc(OC)c(OCc2cccs2)cc1OC [Example 17, 3-[2-methoxy-5-(thien-2-yl)phenyl]-1-(2,5-dimethoxy-4-(thien-2-ylmethoxy)phenyl)-2-propen-1-one] | 
13 | 150 to 155 °C |  | COc1ccc(-c2cccs2)cc1C=CC(=O)c1ccc(I)cc1OC [Example 18, 3-[2-methoxy-5-(thien-2-yl)phenyl]-1-(4-iodo-2-methoxyphenyl)-2-propen-1-one] | 
14 | 97 to 107 °C |  | COc1cccc(-c2ccc(C(=O)C=Cc3cc(-c4cccs4)ccc3OC)c(OC)c2)c1 [Example 21, 3-[2-methoxy-5-(thien-2-yl)phenyl]-1-[2-methoxy-4-(3-methoxyphenyl)phenyl]-2-propen-1-one] | 
15 | 100 to 105 °C |  | COc1ccc(-c2cccs2)cc1C=CC(=O)c1ccc(F)c(F)c1 [Example 35, 3-[2-methoxy-5-(thien-2-yl)phenyl]-1-(3,4-difluorophenyl)-2-propen-1-one] | 
16 | 152 to 163 °C |  | COc1ccc(-c2cccs2)cc1C=CC(=O)c1ccc(Cl)c(Cl)c1O [Example 36, 3-[2-methoxy-5-(thien-2-yl)phenyl]-1-(3,4-dichloro-2-hydroxyphenyl)-2-propen-1-one] | 
17 |  | 5.90 | COc1cc(OC)c(-c2cccs2)cc1C=CC(=O)c1ccc(OC)c(OC)c1OC [Example 41, 3-[2,4-dimethoxy-5-(thien-2-yl)phenyl]-1-(2,3,4-trimethoxyphenyl)-2-propen-1-one] | 
18 | 111 to 113 °C |  | COc1cc(OC)c(-c2cc3ccccc3s2)cc1C=CC(=O)c1cc(OC)c(OCCN2CCOCC2)c(OC)c1 [Example 43, 3-[5-(benzo[b]thien-2-yl)-2,4-dimethoxyphenyl]-1-[3,5-dimethoxy-4-(2-morpholinoethoxy)phenyl]-2-propen-1-one] | 
19 | 145 to 153 °C |  | COc1cc(OC)c(-c2cc3ccccc3s2)cc1C=CC(=O)c1cc(OC)c(OCC(=O)O)c(OC)c1 [Example 44, 3-[5-(benzo[b]thien-2-yl)-2,4-dimethoxyphenyl]-1-(4-carboxymethoxy-3,5-dimethoxyphenyl)-2-propen-1-one] | 
20 | 120 to 124 °C |  | COc1cc(C=CC(=O)c2ccc(OC)c(OC)c2OC)cc(-c2cc3ccccc3s2)c1OC [Example 49, 3-[5-(benzo[b]thien-2-yl)-3,4-dimethoxyphenyl]-1-(2,3,4-trimethoxyphenyl)-2-propen-1-one] | 
21 | 216 to 222 °C |  | COc1cc(C=C2Cc3cc(-c4cccs4)ccc3C2=O)cc(OC)c1OC [Example 53] | pIC50 (VCAM-1; [3]): < 4.30
22 | 192 to 205 °C |  | COc1cc2c(cc1OC)C(=O)C(=Cc1cc(OC)c(OC)c(-c3cccs3)c1)CC2 [Example 54] | pIC50 (VCAM-1; [3]): 5.70
23 | 164 to 172 °C |  | COc1ccc(-c2cccs2)cc1C=C1Cc2cc(OC)c(OC)cc2C1=O [Example 55] | pIC50 (VCAM-1; [3]): < 4.30
24 | 30 to 50 °C |  | COc1ccc(-c2cccs2)cc1/C=C/C(=O)c1ccc(-c2cccs2)cc1OC [Example 58] | 
25 | 191 to 196 °C (dec.) | 6.35 | COc1cc(OC)c(-c2cc3ccccc3s2)cc1C=CC(=O)c1cc(OC)c(OCC(=O)[O-])c(OC)c1.[Na+] [Example 61, 3-[5-(Benzo[b]thien-2-yl)-2,4-dimethoxyphenyl]-1-(4-carboxymethoxy-3,5-dimethoxyphenyl)-2-propen-1-one, sodium salt] | 
26 |  | 5.90 | COc1cc(OCC(=O)O)c(/C=C/C(=O)c2cc(OC)c(OC)c(OC)c2)cc1-c1cc2ccccc2s1 [Example 62, 3-[5-(Benzo[b]thien-2-yl)-2-carboxymethoxy-4-methoxyphenyl]-1-(3,4,5-trimethoxyphenyl)-2-propen-1-one, sodium salt] | 
